This assay relates to Primary human T-cells. Description: Primary Human T-Cell Proliferation Assay Stimulated with IL-2 (CellTiter-Glo). Type of assay: cell-based. The settings on record: primary human T-cell proliferation stimulated with IL-2; read-out: IC50, Example 42. In a few lines:
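Peripheral blood T-cells pre-activated with anti-CD3/anti-CD28 and IL-2 were washed free of IL-2, then cultured with compound plus IL-2 for 72 hours at 37° C, duplicate wells. Viability read as ATP by CellTiter-Glo luminescence; IC50 reported.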
As to `Cc1ccc(Nc2ncc(F)c(Nc3cccc(OC4CCCN(C)C4)c3)n2)cc1S(N)(=O)=O` (racemic) [II-1, Racemic N2-(3-aminosulfonyl-4-methylphenyl)-5-fluoro-N4-{3-[(1-methylpiperidin-3-yl)oxy]phenyl}-2,4-pyrimidinediamine], the IC50 is 1.14 µM. The value for `Cc1ccc(Nc2ncc(F)c(Nc3ccc(OC4CCCN(C)C4)cc3)n2)cc1S(N)(=O)=O` (racemic) [II-4, Racemic N2-(3-aminosulfonyl-4-methylphenyl)-5-fluoro-N4-{4-[(1-methylpiperidin-3-yl)oxy]phenyl}-2,4-pyrimidinediamine] was 2.37 µM. For the compound `Cc1cc(Nc2nc(Nc3cccc(S(N)(=O)=O)c3)ncc2F)ccc1OCC#N` [Compound I-23, N2-(3-Aminosulfonyl)phenyl-N4-(4-cyanomethoxy-3-methyl)phenyl-5-fluoro-2,4-pyrimidinediamine], the IC50 came to 0.0882 µM.

In the case of `Cc1cc(Nc2nc(Nc3ccc(C)c(S(N)(=O)=O)c3)ncc2F)ccc1OCC#N` [Compound I-24, N2-(3-Aminosulfonyl-4-methyl)phenyl-N4-(4-cyanomethoxy-3-methyl)phenyl-5-fluoro-2,4-pyrimidinediamine], the IC50 is 0.296 µM. The value for `COc1cc(Nc2ncc(F)c(Nc3ccc(OCC#N)cc3)n2)ccc1S(N)(=O)=O` [Compound I-28, N2-(4-Aminosulfonyl-3-methoxyphenyl)-N4-(4-cyanomethoxy)phenyl-5-fluoro-2,4-pyrimidinediamine] was 0.56 µM; that for `N#CCOc1ccc(Nc2nc(Nc3ccc(F)c(S(N)(=O)=O)c3)ncc2F)cc1` [Compound I-33, N2-(3-Aminosulfonyl-4-fluoro)phenyl-N4-(4-cyanomethoxy)phenyl-5-fluoro-2,4-pyrimidinediamine] was 0.171 µM; that for `Cc1cc(COc2ccc(Nc3nc(Nc4cc(Cl)c(C)c(S(N)(=O)=O)c4)ncc3F)cc2C)no1` [Compound I-216, N2-(3-Aminosulfonyl-5-chloro-4-methylphenyl)-5-fluoro-N4-[3-methyl-4-(5-methylisoxazol-3-yl)methyleneoxyphenyl]-2,4-pyrimidinediamine] was 0.493 µM. The value for `Cc1cc(COc2ccc(Nc3nc(Nc4ccc(C)c(S(N)(=O)=O)c4)ncc3F)cc2Cl)no1` [Compound I-221, N2-(3-Aminosulfonyl-4-methylphenyl)-N4-[3-chloro-4-(5-methylisoxazol-3-yl)methyleneoxyphenyl]-5-fluoro-2,4-pyrimidinediamine] was 2.68 µM; that for `Cc1cc(COc2ccc(Nc3nc(Nc4ccc(C)c(S(N)(=O)=O)c4)ncc3F)cc2F)no1` [Compound I-222, N2-(3-Aminosulfonyl-4-methylphenyl)-5-fluoro-N4-[3-fluoro-4-(5-methylisoxazol-3-yl)methyleneoxyphenyl]-2,4-pyrimidinediamine] was 0.582 µM; that for `Cc1noc(COc2ccc(Nc3nc(Nc4ccc(S(N)(=O)=O)cc4)ncc3F)cc2)n1` [Compound I-231, N2-(4-Aminosulfonylphenyl)-5-fluoro-N4-[4-(3-methyl-1,2,4-oxadiazol-5-yl)methyleneoxyphenyl]-2,4-pyrimidinediamine] was 0.29 µM. In the case of `Cc1cc(COc2ccc(Nc3nc(Nc4ccc(F)c(S(N)(=O)=O)c4)ncc3F)cc2)no1` [Compound I-233, N2-(3-Aminosulfonyl-4-fluorophenyl)-5-fluoro-N4-[4-(5-methylisoxazol-3-yl)methyleneoxyphenyl]-2,4-pyrimidinediamine] it was 0.377 µM; in that of `CNS(=O)(=O)c1cc(Nc2ncc(F)c(Nc3ccc(OCc4cc(C)on4)cc3)n2)ccc1C` [Compound I-235, 5-Fluoro-N2-[3-(N-methyl)aminosulfonyl-4-methylphenyl]-N4-[4-(5-methylisoxazol-3-yl)methyleneoxyphenyl]-2,4-pyrimidinediamine], 0.47 µM.

The record behind these values is patent publication US11827628B2, “Compositions and methods for inhibition of the JAK pathway” (Rigel Pharmaceuticals, Inc., priority 2005, dated 2023).
